Experimental data reported in patent EP0745595A1, “3-(3-Aryloxyphenyl)-1-(substituted methyl)-s-triazine-2,4,6-oxo or thiotrione herbicidal agents” (American Cyanamid Company, priority 1995, dated 1996).

Key:
Type in all cases: in vivo
CYPERUS DIFFORMIS = assay: Preemergence evaluation in the presence of transplanted rice under flooded paddy conditions (Example 43), CYPDI (Flatsedge, smallflower); set-up: key: visual rating on a 0-9 scale, compared with control; settings: applied three days after sowing, 25 to 30 days after treatment
Protocol: (§1) Results of herbicide evaluation are expressed on a rating scale (0-9). The scale is based upon a visual observation of plant stand, vigor, malformation, size, chlorosis and overall plant appearance as compared with a control.
(§2) In this example, Deluvian paddy soil (Toyokawa paddy soil) is placed in plastic pots, 100cm^2 x 9 cm in depth. Water is added to the level of the soil surface in the pot and the mixture is paddled 3 cm in depth.
(§3) Pots are then variously sown with monocotyledenous weed seeds and tubers at 0-2 cm in soil depth, as well as transplanted rice plants at the 2.5 leaf stage. The rice plants are transplanted at about 3 cm soil depth. Water is then added to all of the pots to 3 cm deep and kept at a depth of 3 cm for the duration of the test. Test compounds are applied in the manner described in Example 42 three days after transplanting the rice plants and sowing the weed seeds and tubers. The pots are then placed on greenhouse benches and cared for in the conventional manner. Tests are examined at 25 to 30 days after treatment and rated according to the rating system provided in Example 40. The compounds evaluated are reported by compound number given in Example 40.

[…] = Preemergence evaluation in the presence of transplanted rice under flooded paddy conditions (Example 43), MOOVA (Monochoria); settings: applied three days after sowing, 25 to 30 days after treatment
Protocol: as §1, §2, §3

SCIRPUS JUNCOIDES = assay: Preemergence evaluation in the presence of transplanted rice under flooded paddy conditions (Example 43), SCPJU (Bulrush, Japanese); set-up: key: visual rating on a 0-9 scale, compared with control; settings: applied three days after sowing, 25 to 30 days after treatment
Protocol: as §1, §2, §3

ECHINOCHLOA CRUS-GALLI = assay: Preemergence evaluation in the presence of transplanted rice under flooded paddy conditions (Example 43), ECHCG (Barnyard Grass); set-up: key: visual rating on a 0-9 scale, compared with control; settings: applied three days after sowing, 25 to 30 days after treatment
Protocol: as §1, §2, §3

SAGITTARIA PYGMAEA = assay: Preemergence evaluation in the presence of transplanted rice under flooded paddy conditions (Example 43), SAGPY (Arrowhead (Pygmaea)); set-up: key: visual rating on a 0-9 scale, compared with control; settings: applied three days after sowing, 25 to 30 days after treatment
Protocol: as §1, §2, §3

CYPERUS SEROTINUS = assay: Preemergence evaluation in the presence of transplanted rice under flooded paddy conditions (Example 43), CYPSE (Flatsedge, perennial); set-up: key: 0-9 visual rating scale vs. untreated control; settings: applied three days after sowing, 25 to 30 days after treatment
Protocol: as §1, §2, §3

[1] = test system: ORYZA SATIVA, L. CV. KOSHIHIKARI; assay: Post-transplant rice evaluation under flooded paddy conditions (Example 43), ORYSAK (Rice, Koshihikari); set-up: key: visual rating on a 0-9 scale, compared with control; settings: applied three days after transplanting rice, 25 to 30 days after treatment
Protocol: as §1, §2, §3

SMILES	Herbicidal effect rating, CYPDI (CYPERUS DIFFORMIS; 0.025 kg/ha)	Herbicidal effect rating, CYPDI (CYPERUS DIFFORMIS; 0.050 kg/ha)	Herbicidal effect rating, CYPDI (CYPERUS DIFFORMIS; 0.100 kg/ha)	Herbicidal effect rating, CYPDI (CYPERUS DIFFORMIS; 0.250 kg/ha)	Herbicidal effect rating, MOOVA ([…]; 0.025 kg/ha)	Herbicidal effect rating, MOOVA ([…]; 0.050 kg/ha)	Herbicidal effect rating, MOOVA ([…]; 0.100 kg/ha)	Herbicidal effect rating, MOOVA ([…]; 0.250 kg/ha)	Herbicidal effect rating, SCPJU (SCIRPUS JUNCOIDES; 0.025 kg/ha)	Herbicidal effect rating, SCPJU (SCIRPUS JUNCOIDES; 0.050 kg/ha)	Herbicidal effect rating, SCPJU (SCIRPUS JUNCOIDES; 0.100 kg/ha)	Herbicidal effect rating, SCPJU (SCIRPUS JUNCOIDES; 0.250 kg/ha)	Herbicidal effect rating, ECHCG (ECHINOCHLOA CRUS-GALLI; 0.025 kg/ha)	Herbicidal effect rating, ECHCG (ECHINOCHLOA CRUS-GALLI; 0.050 kg/ha)	Herbicidal effect rating, ECHCG (ECHINOCHLOA CRUS-GALLI; 0.100 kg/ha)	Herbicidal effect rating, ECHCG (ECHINOCHLOA CRUS-GALLI; 0.250 kg/ha)	Herbicidal effect rating, SAGPY (SAGITTARIA PYGMAEA; 0.025 kg/ha)	Herbicidal effect rating, SAGPY (SAGITTARIA PYGMAEA; 0.050 kg/ha)	Herbicidal effect rating, SAGPY (SAGITTARIA PYGMAEA; 0.100 kg/ha)	Herbicidal effect rating, SAGPY (SAGITTARIA PYGMAEA; 0.250 kg/ha)	other results
COC(=O)Cn1c(=O)n(C)c(=O)n(-c2cc(Oc3c(F)cc(C(F)(F)F)cc3Cl)ccc2Br)c1=O [Compound 2, Methyl 3-{2-bromo-5-[(2-chloro-α,α,α,6-tetrafluoro-p-tolyl)oxy]phenyl}tetrahydro-5-methyl-2,4,6-trioxo-s-triazine-1(2H)-acetate]	9.0	9.0	9.0	9.0	9.0	9.0	9.0	9.0	8.0	9.0	9.0	9.0	9.0	9.0	9.0	9.0	3.0	7.0	9.0	9.0	Herbicidal effect rating, CYPSE (CYPERUS SEROTINUS; 0.025 kg/ha): 4.0; Herbicidal effect rating, CYPSE (CYPERUS SEROTINUS; 0.050 kg/ha): 7.0; Herbicidal effect rating, CYPSE (CYPERUS SEROTINUS; 0.100 kg/ha): 9.0; Herbicidal effect rating, CYPSE (CYPERUS SEROTINUS; 0.250 kg/ha): 9.0; Herbicidal effect rating, ORYSAK ([1]; 0.025 kg/ha): 1.0; Herbicidal effect rating, ORYSAK ([1]; 0.050 kg/ha): 3.0; Herbicidal effect rating, ORYSAK ([1]; 0.100 kg/ha): 5.0; Herbicidal effect rating, ORYSAK ([1]; 0.250 kg/ha): 9.0
COC(=O)Cn1c(=O)n(C)c(=O)n(-c2cc(Oc3ccc(C(F)(F)F)cc3Cl)ccc2[N+](=O)[O-])c1=O [Compound 3, Methyl 3-{5-[(2-chloro-α,α,α-trifluoro-p-tolyl)oxy]-2-nitrophenyl}tetrahydro-5-methyl-2,4,6-trioxo-s-triazine-1(2H)-acetate]	5.0	8.0	9.0	9.0	3.0	5.0	7.0	9.0	5.0	7.0	9.0	9.0	8.0	9.0	9.0	9.0	0.0	0.0	1.0	3.0	Herbicidal effect rating, CYPSE (CYPERUS SEROTINUS; 0.025 kg/ha): 0.0; Herbicidal effect rating, CYPSE (CYPERUS SEROTINUS; 0.050 kg/ha): 5.0; Herbicidal effect rating, CYPSE (CYPERUS SEROTINUS; 0.100 kg/ha): 8.0; Herbicidal effect rating, CYPSE (CYPERUS SEROTINUS; 0.250 kg/ha): 9.0; Herbicidal effect rating, ORYSAK ([1]; 0.025 kg/ha): 0.0; Herbicidal effect rating, ORYSAK ([1]; 0.050 kg/ha): 1.0; Herbicidal effect rating, ORYSAK ([1]; 0.100 kg/ha): 5.0; Herbicidal effect rating, ORYSAK ([1]; 0.250 kg/ha): 8.0
